Measured values: patent publication US20050059720A1, “Medicinal compositions for the prevention or treatment of cardiac failure” (SANKYO COMPANY, LIMITED, priority 2000, published 2005)

Tested on: Ventricular Cells in the Area Adjacent to Infarction
Assay: Suppression of hypertrophy of ventricular cells in the area adjacent to infarction (coronary artery ligation)
Assay type: in vivo, Wistar rats
Details: rats, 4 weeks administration after coronary ligation; pravastatin 5 mg/kg/day, CS-866 2 mg/kg/day; normal 2,737, control 3,812

CC[C@H](C)C(=O)O[C@H]1C[C@H](O)C=C2C=C[C@H](C)[C@H](CC[C@@H](O)C[C@@H](O)CC(=O)O)[C@H]21 [pravastatin, (+)-(3R,5R)-3,5-dihydroxy-7-[(1S,2S,6S,8S,8aR)-6-hydroxy-2-methyl-8-[(S)-2-methylbutyryloxy]-1,2,6,7,8,8a-hexahydro-1-naphthyl]heptanoic acid]
Mass of cardiac muscle cells in adjacent area to the infarction: 3,053 μm^2
